In patent US20060154936A1, “Use of n-'5-'4-(4-methylpiperaziomethyl)-benzoylamido!-2-methylphenyl!-4-(3-pyridyl)2-pyridine-amine for the treatment of pulmonary hypertension” (priority 2002, published 2006):

Test system: hypoxia-induced pulmonary hypertension
Assay: Hypoxia-induced pulmonary hypertension in rats (hypobaric-hypoxic vs ambient air, 3 weeks)
Format: in vivo, Spraque-Dawley rats
Details: for % wall thickness (medial hypertrophy index, pulmonary artery) / RV/LV + S(%) (right ventricle/left ventricular + septum weight ratio) / mPAP (mean pulmonary arterial pressure): 50 mg/kg intraperitoneal once daily for 3 weeks; for mPAP (mean pulmonary arterial pressure): right cardiac catheterization
Source text: This study is designed to investigate the effects of PDGF receptor signal transduction blockade on the development of hypoxia-induced pulmonary hypertension using a PDGF receptor-selective tyrosine kinase inhibitor, e.g. COMPOUND I, COMPOUND I mesylate.
The methodology as described by Ortiz L A, Champion H C, Lasky J A and col.
Pulmonary arterial pressure (PAP) can be measured in anesthetized mice with the use of a single-lumen catheter (Nu-Med, Hopkinton, N.Y.). The catheter (145 mm in length, 0.25 mm OD) has a specially curved tip to facilitate passage through the right heart, main pulmonary artery, and the left or right pulmonary artery. Immediately after placement of the pulmonary catheter (30 min in average), pressure in the main pulmonary artery is measured with a pressure transducer (Schneider/Namic, Glenns Falls, N.Y.), and mean PAP is derived electronically and recorded continuously. For the determination of pulmonary arterial wedge pressure, the catheter is advanced to the left or right pulmonary artery and wedged with continuous measurement of the pressure waveform.
Lung morphology and evaluation of right ventricular hypertrophy can be performed as below. The heart is perfused with 0.9% NaCl to remove residual blood, and the right lung is fixed in situ for 2 h by intratracheal instillation of 10% neutral formalin (Sigma, St. Louis, Mo.) at a constant pressure of 30 cmH2O and was preserved in fixative for 24 h. Lung tissues are then sectioned sagittally and embedded in paraffin. Sections (4 μm thick) are generated and mounted on positively charged slides (Fisher Scientific, Pittsburgh, Pa.). Slides are stained with hematoxylin-eosin for light microscopic examination. Immediately after death, hearts are resected to evaluate right ventricular hypertrophy. The atria are removed up to the plane of the atrial-ventricular valves. The right ventricle (RV) free wall is then dissected free of the left ventricle (LV) and septum. The RV and LV plus septum are weighed and the RV-to-LV+septum ratio is calculated.
Ten Spraque-Dawley rats are exposed to hypobaric-hypoxic (HH) conditions and ten ambient air (AA) animals are used as controls. The rats in both conditions are randomized to receive intraperitoneal injections with either once daily COMPOUND I (50 mg/kg) or placebo for 3 weeks. Right cardiac catheterizations are used to evaluate the mean pulmonary arterial pressure (mPAP). Subsequently, the rats are sacrificed for the evaluation of their medial hypertrophy index (% wall thickness of the pulmonary artery), and right ventricular hypertrophy (right ventricle/left ventricular +septum weight ratio; RV/LV+S).

Cc1ccc(NC(=O)c2ccc(CN3CCN(C)CC3)cc2)cc1Nc1nccc(-c2cccnc2)n1 [COMPOUND I]
% wall thickness (medial hypertrophy index, pulmonary artery) (ambient air (AA) rats): 10.32 ± 0.33%
RV/LV + S(%) (right ventricle/left ventricular + septum weight ratio) (ambient air (AA) rats): 24.60 ± 1.08%
mPAP (mean pulmonary arterial pressure) (ambient air (AA) rats): 16.20 ± 1.93 mmHg
% wall thickness (medial hypertrophy index, pulmonary artery) (hypobaric-hypoxic (HH) rats): 14.77 ± 0.73%
RV/LV + S(%) (right ventricle/left ventricular + septum weight ratio) (hypobaric-hypoxic (HH) rats): 35.85 ± 1.29%
mPAP (mean pulmonary arterial pressure) (hypobaric-hypoxic (HH) rats): 19.50 ± 1.32 mmHg
lowering of the index of % wall thickness (rats, 50 mg/kg i.p. once daily, 3 weeks, p=0.001): 59%
reduction of hypoxic-induced pulmonary hypertension (rats, 50 mg/kg i.p. once daily, 3 weeks, p=0.002): 80%
reduction of RV hypertrophy (rats, 50 mg/kg i.p. once daily, 3 weeks, p=0.006): 46%
